Source: patent US20250073210A1, “Use of Ergothioneine for Enhancing Glutathione Level” (priority 2022, published 2025)

Columns and labels:
GCLM = test: RT-qPCR PCR array mQPA-8-Nrf2, GCLM expression in NHEK; assay type: cell-based, human
Experimental: (§1) In the present study, the effects of compound L-Ergothioneine were investigated in normal human epidermal keratinocytes (NHEK) under basal or UV-irradiated conditions. More specifically, the effects of this compound were evaluated using RT-qPCR technology. Extracted mRNA was analyzed using a PCR array (“mQPA-8-Nrf2”) for the analysis of 8 target genes (including 1 housekeeping gene) selected for their role in Nrf2 pathway. Prior to this assay, a preliminary cytotoxicity assay was performed on compound L-Ergothioneine and Resveratrol (reference in basal condition) using a standard WST-8 reduction assay, in order to determine the concentrations to be tested in this study.
(§2) Cell type: Normal human epidermal keratinocytes (NHEK) used at the 3rd passage. Culture conditions: 37° C., 5% CO2. Culture medium: Keratinocyte-SFM optimized for the assay, supplemented with Epidermal Growth Factor Pituitary extract. Assay medium: Keratinocyte-SFM optimized for the assay. Test compound: L-Ergothioneine in ultrapure water. Test concentrations: 0.5, 3 and 30 μM. Reference: Resveratrol. Test concentration: 20 μM.
(§3) Keratinocytes were seeded in 24-well plates and cultured for 24 hours in culture medium and in assay medium for a further 24 hours. The medium was then replaced by assay medium containing or not (control) the compound or Resveratrol and cells were pre-incubated for 24 hours.
(§4) After pre-incubation, the medium was then removed and replaced by a PBS solution. For basal conditions, the plate was kept in the dark during the irradiation time. For irradiated conditions, the cells were irradiated with UVB−275 mJ/cm^2 (+UVA−2 J/cm^2) using a SOL500 Sun Simulator equipped with an H2 filter (Dr. Hönle, AG). After irradiation time, the treatments were renewed, and the cells were incubated for 24 hours. All experimental conditions were performed in n=3. At the end of incubation, the cells were washed in phosphate buffered saline (PBS) solution and immediately frozen at −80° C.
(§5) The expression of markers was analyzed using RT-qPCR method on total RNA extracted from the cell monolayers of each experimental condition (before RNA extraction, the replicates of the same experimental condition were pooled). The analysis of transcripts was performed in n=2 using a PCR array dedicated to research and adapted to ‘screening’ format and targeting 8 genes selected for their role in Nrf2 pathway.
(§6) Total RNA was extracted from each sample using TriPure Isolation Reagent® according to the supplier's instructions. The amount and quality of RNA were evaluated using capillary electrophoresis (Bioanalyzer 2100, Agilent technologies). The complementary DNA (cDNA) was synthetized by reverse transcription of total RNA in presence of oligo(dT) and «Transcriptor Reverse Transcriptase» (Roche Molecular System Inc.). The cDNA quantities were then adjusted before PCR.
(§7) The PCR (Polymerase Chain Reaction) were performed using the «LightCycler®» system (Roche Molecular System Inc.) according to the supplier's instructions. The reaction mix (10 μl final) was prepared as follows: 2.5 μl of cDNA; primers (forward and reverse); reagent mix (Roche) containing taq DNA polymerase, SYBR Green I and MgCl2.
(§8) The incorporation of fluorescence in amplified DNA was continuously measured during the PCR cycles. […] The value selected for RE calculations is the “output point” (Ct) of the fluorescence curve. For a considered marker, the highest is the cycle number; the lowest is the mRNA quantity. The RE value was calculated with the formula: (½^number of cycles)×10^6. The PCR array used in the present study included 1 reference gene (RPS28).

TXN = test: RT-qPCR PCR array mQPA-8-Nrf2, TXN expression in NHEK; assay type: cell-based, human
Experimental: as §1, §2, §3, §4, §5, §6, §7, §8

HMOX1 = test: RT-qPCR PCR array mQPA-8-Nrf2, HMOX1 expression in NHEK; assay type: cell-based, human
Experimental: as §1, §2, §3, §4, §5, §6, §7, §8

TXNRD1 = test: RT-qPCR PCR array mQPA-8-Nrf2, TXNRD1 expression in NHEK; assay type: cell-based, human
Experimental: as §1, §2, §3, §4, §5, §6, §7, §8

RPS28 = test: RT-qPCR PCR array mQPA-8-Nrf2, housekeeping gene RPS28; assay type: cell-based, human
Experimental: as §1, §2, §3, §4, §5, §6, §7, §8

GCLC = test: RT-qPCR PCR array mQPA-8-Nrf2, GCLC expression in NHEK; assay type: cell-based, human
Experimental: as §1, §2, §3, §4, §5, §6, §7, §8

NQO1 = test: RT-qPCR PCR array mQPA-8-Nrf2, NQO1 expression in NHEK; assay type: cell-based, human
Experimental: as §1, §2, §3, §4, §5, §6, §7, §8

[1] = Preliminary cytotoxicity assay (WST-8 reduction, viability and morphological observations); assay type: cell-based, human; conditions: human
Experimental: as §1, §2
(§9) Cell type: NHEK in assay medium. Incubation time: 24 hours.
(§10) After treatment, the cells were incubated with WST-8 (highly water-soluble tetrazolium salt) reduced in a water-soluble orange colored product (formazan) by succinate dehydrogenase (mitochondrial enzyme). This transformation is proportional to the number of living cells and their metabolic activity. The optical density (OD) of the extracts at 450 nm was recorded with a spectrometer (VERSAmax, Molecular Devices).

[2] = system: normal human epidermal keratinocytes (NHEK); test: as above; assay type: cell-based; conditions: human, 24 h
Experimental: as §1, §2, §9, §10

MT1G = test: RT-qPCR PCR array mQPA-8-Nrf2, MT1G expression in NHEK; assay type: cell-based, human
Experimental: as §1, §2, §3, §4, §5, §6, §7, §8

Nrf2 pathway = test: Gene expression profile of keratinocytes (mQPA-8-Nrf2 array as a whole); assay type: cell-based, human
Experimental: as §1, §2, §3, §4, §5

[3] = UV-irradiated (UVB-275 mJ/cm^2 +UVA-2 J/cm^2), 0.5 μM
[4] = UV-irradiated (UVB-275 mJ/cm^2 +UVA-2 J/cm^2), 3 μM
[5] = UV-irradiated (UVB-275 mJ/cm^2 +UVA-2 J/cm^2), 30 μM

## C[N+](C)(C)[C@@H](Cc1c[nH]c(=S)[nH]1)C(=O)[O-] [L-Ergothioneine, (2S)-3-(2-thioxo-2,3-dihydro-1H-imidazol-4-yl)-2-(trimethylammonio)-propanoate]
GCLM; [3]
  GCLM % Control RPS28: 76 % Control
GCLM; [4]
  GCLM % Control RPS28: 86 % Control
GCLM; [5]
  GCLM % Control RPS28: 86 % Control
GCLM; basal conditions, 0.5 μM
  GCLM % Control RPS28: 95 % Control
GCLM; basal conditions, 3 μM
  GCLM % Control RPS28: 97 % Control
GCLM; basal conditions, 30 μM
  GCLM % Control RPS28: 98 % Control
TXN; [3]
  TXN % Control RPS28: 89 % Control
TXN; [4]
  TXN % Control RPS28: 99 % Control
TXN; [5]
  TXN % Control RPS28: 101 % Control
TXN; basal conditions, 0.5 μM
  TXN % Control RPS28: 87 % Control
TXN; basal conditions, 3 μM
  TXN % Control RPS28: 83 % Control
TXN; basal conditions, 30 μM
  TXN % Control RPS28: 98 % Control
HMOX1; [3]
  HMOX1 % Control RPS28: 104 % Control
HMOX1; [4]
  HMOX1 % Control RPS28: 109 % Control
HMOX1; [5]
  HMOX1 % Control RPS28: 141 % Control
HMOX1; basal conditions, 0.5 μM
  HMOX1 % Control RPS28: 86 % Control
HMOX1; basal conditions, 3 μM
  HMOX1 % Control RPS28: 91 % Control
HMOX1; basal conditions, 30 μM
  HMOX1 % Control RPS28: 98 % Control
TXNRD1; [3]
  TXNRD1 % Control RPS28: 99 % Control
TXNRD1; [4]
  TXNRD1 % Control RPS28: 97 % Control
TXNRD1; [5]
  TXNRD1 % Control RPS28: 120 % Control
TXNRD1; basal conditions, 0.5 μM
  TXNRD1 % Control RPS28: 75 % Control
TXNRD1; basal conditions, 3 μM
  TXNRD1 % Control RPS28: 72 % Control
TXNRD1; basal conditions, 30 μM
  TXNRD1 % Control RPS28: 82 % Control
RPS28; [3]
  RPS28 % Control RPS28: 100 % Control
RPS28; [4]
  RPS28 % Control RPS28: 100 % Control
RPS28; [5]
  RPS28 % Control RPS28: 100 % Control
RPS28; basal conditions, 0.5 μM
  RPS28 % Control RPS28: 100 % Control
RPS28; basal conditions, 3 μM
  RPS28 % Control RPS28: 100 % Control
RPS28; basal conditions, 30 μM
  RPS28 % Control RPS28: 100 % Control
GCLC; [3]
  GCLC % Control RPS28: 106 % Control
GCLC; [4]
  GCLC % Control RPS28: 126 % Control
GCLC; [5]
  GCLC % Control RPS28: 181 % Control
GCLC; basal conditions, 0.5 μM
  GCLC % Control RPS28: 111 % Control
GCLC; basal conditions, 3 μM
  GCLC % Control RPS28: 118 % Control
GCLC; basal conditions, 30 μM
  GCLC % Control RPS28: 140 % Control
NQO1; [3]
  NQO1 % Control RPS28: 118 % Control
NQO1; [4]
  NQO1 % Control RPS28: 136 % Control
NQO1; [5]
  NQO1 % Control RPS28: 207 % Control
NQO1; basal conditions, 0.5 μM
  NQO1 % Control RPS28: 127 % Control
NQO1; basal conditions, 3 μM
  NQO1 % Control RPS28: 131 % Control
NQO1; basal conditions, 30 μM
  NQO1 % Control RPS28: 155 % Control
[1]; Viability (%)
  viability at 24 h, 2.2 µM: 97%
  viability at 24 h, 6.7 µM: 98%
  viability at 24 h, 20 µM: 99%
  viability at 24 h, 60 µM: 100%
  viability at 24 h, 180 µM: 99%
  viability at 24 h, 540 µM: 100%
  viability at 24 h, 1620 µM: 89%
  viability at 24 h, 4860 µM: 82%
[1]; Viability Mean (%)
  viability at 24 h, 2.2 µM: 100%
  viability at 24 h, 6.7 µM: 99%
  viability at 24 h, 20 µM: 99%
  viability at 24 h, 60 µM: 99%
  viability at 24 h, 180 µM: 97%
  viability at 24 h, 540 µM: 66%
  viability at 24 h, 1620 µM: 92%
  viability at 24 h, 4860 µM: 83%
[2]; 2.2 µM
  Viability (%): 105%
[2]; 6.7 µM
  Viability (%): 101%
[2]; 20 µM
  Viability (%): 102%
[2]; 180 µM
  Viability (%): 95%
[2]; 4860 µM
  Viability (%): 79%
MT1G; [3]
  MT1G % Control RPS28: 81 % Control
MT1G; [4]
  MT1G % Control RPS28: 94 % Control
MT1G; [5]
  MT1G % Control RPS28: 102 % Control
MT1G; basal conditions, 0.5 μM
  MT1G % Control RPS28: 113 % Control
MT1G; basal conditions, 3 μM
  MT1G % Control RPS28: 99 % Control
MT1G; basal conditions, 30 μM
  MT1G % Control RPS28: 115 % Control
Nrf2 pathway; UVB (+UVA) irradiated, tested at 0.5, 3 and 30 μM
  Modulation of the gene expression profile of irradiated keratinocytes: did not induce major modulations
Nrf2 pathway; basal, lowest tested concentrations
  Effect on gene expression, basal keratinocytes: no effect was observed
Nrf2 pathway; basal, tested at 0.5, 3 and 30 μM
  Modulation of the gene expression profile of basal keratinocytes: did not induce major modulations
Nrf2 pathway; irradiated, lowest tested concentrations
  Effect on gene expression, irradiated keratinocytes: no effect was observed
